ChEMBL document CHEMBL3632488, “Discovery of potent and selective cytotoxic activity of new quinazoline-ureas against TMZ-resistant glioblastoma multiforme (GBM)” (Eur J Med Chem, 2015)
Each block holds one compound with its values, some of them ahead of it. Calls of active or inactive are those of the source. No cut-off for these calls is given here.

Legend:
[1] = tested on: GBM; assay: Tumoricidal effect in patient derived GBM 025T cells assessed as reduction in neurosphere formation at 20 uM after 1 to 2 weeks by 3D tumor clonogenic assay; assay type: functional, cell-based; conditions: Homo sapiens
[2] = tested on: GBM; assay: Tumoricidal effect in patient derived GBM 448T cells assessed as reduction in neurosphere formation at 20 uM after 1 to 2 weeks by 3D tumor clonogenic assay; assay type: functional, cell-based; conditions: Homo sapiens
[3] = tested on: GBM; assay: Tumoricidal effect in patient derived GBM 464T cells assessed as reduction in neurosphere formation at 20 uM after 1 to 2 weeks by 3D tumor clonogenic assay; assay type: functional, cell-based; conditions: Homo sapiens
[4] = tested on: GBM; assay: Tumoricidal effect in patient derived GBM 047T cells assessed as reduction in neurosphere formation at 20 uM after 1 to 2 weeks by 3D tumor clonogenic assay; assay type: functional, cell-based; conditions: Homo sapiens
[5] = tested on: GBM; assay: Tumoricidal effect in patient derived GBM 096T cells assessed as reduction in neurosphere formation at 20 uM after 1 to 2 weeks by 3D tumor clonogenic assay; assay type: functional, cell-based; conditions: Homo sapiens
[6] = target: Translocator protein (Rattus norvegicus) (UniProt P16257); assay: Displacement of [3H]PK11195 from TSPO receptor in Sprague-Dawley rat cerebral cortex membrane at 100 nM by radiometric competitive assay; assay type: tissue-based
[7] = target: Translocator protein (Rattus norvegicus) (UniProt P16257); assay: Displacement of [3H]PK11195 from TSPO receptor in Sprague-Dawley rat cerebral cortex membrane at 10 nM by radiometric competitive assay; assay type: tissue-based
[8] = target: Translocator protein (Rattus norvegicus) (UniProt P16257); conditions: Sprague-Dawley, Cerebral cortex, Membrane, 0.1 nM
[9] = target: Translocator protein (Rattus norvegicus) (UniProt P16257); assay: Displacement of [3H]PK11195 from TSPO receptor in Sprague-Dawley rat cerebral cortex membrane at 1 nM by radiometric competitive assay; assay type: tissue-based
[10] = target: Translocator protein (Rattus norvegicus) (UniProt P16257); assay: Displacement of [3H]PK11195 from TSPO receptor in Sprague-Dawley rat cerebral cortex membrane at 1 uM by radiometric competitive assay; assay type: tissue-based
[11] = target: Translocator protein (Rattus norvegicus) (UniProt P16257); assay: Displacement of [3H]PK11195 from TSPO receptor in Sprague-Dawley rat cerebral cortex membrane at 10 uM by radiometric competitive assay; assay type: tissue-based
[12] = Antiproliferative activity against human GBM3 cells assessed as reduction in cell viability at 10 uM incubated for 72 hrs by WST-1 method; assay type: functional; conditions: GBM3, 72 h
[13] = tested on: GBM1; assay: Induction of apoptosis in human GBM1 cells assessed as loss of mitochondrial membrane potential at 10 uM after 2 hrs by JC-1 staining based fluorescence microscopy; assay type: functional, cell-based
[14] = Antiproliferative activity against human GBM3 cells assessed as reduction in cell viability incubated for 72 hrs by WST-1 method; assay type: functional, cell-based; conditions: GBM3, 72 h
[15] = Selectivity index, ratio of IC50 for normal human astrocytes to IC50 for human GBM2 cells
[16] = target: Translocator protein (Rattus norvegicus, UniProt P16257); assay: Displacement of [3H]PK11195 from TSPO receptor in Sprague-Dawley rat cerebral cortex membrane by radiometric competitive assay; assay type: tissue-based
[17] = Cytotoxicity against normal human astrocytes assessed as cell viability incubated for 72 hrs by WST-1 method; assay type: cell-based; conditions: Astrocyte
[18] = Antiproliferative activity against human GBM1 cells assessed as reduction in cell viability incubated for 72 hrs by WST-1 method; assay type: functional, cell-based; conditions: GBM1, 72 h
[19] = Selectivity index, ratio of IC50 for normal human astrocytes to IC50 for human GBM1 cells
[20] = Antiproliferative activity against human GBM2 cells assessed as reduction in cell viability at 10 uM incubated for 72 hrs by WST-1 method; assay type: functional; conditions: GBM2, 72 h
[21] = Antiproliferative activity against human GBM1 cells assessed as reduction in cell viability at 10 uM incubated for 72 hrs by WST-1 method; assay type: functional; conditions: GBM1, 72 h
[22] = Antiproliferative activity against human GBM2 cells assessed as reduction in cell viability incubated for 72 hrs by WST-1 method; assay type: functional, cell-based; conditions: GBM2, 72 h
[23] = Selectivity index, ratio of IC50 for normal human astrocytes to IC50 for human GBM3 cells

Compound: Cn1nnc2c(C(N)=O)ncn2c1=O
Activity [1]: inactive
Activity [2]: inactive
Activity [3]: Active
Activity [4]: Active
Activity [5]: inactive

inhibition [6]: 90%
inhibition [7]: 45%
inhibition [8]: 0%
inhibition [9]: 7%
inhibition [10]: 100%
Compound: CCC(C)N(C)C(=O)c1cc2ccccc2c(-c2ccccc2Cl)n1 (configuration not stated)

inhibition [11]: 75%
inhibition [6]: 34%
inhibition [7]: 9%
IC50 [16]: 703 nM
inhibition [9]: 3%
inhibition [10]: 53%
Compound: O=C(Nc1cc2ncncc2cc1OCc1cccc(F)c1)Nc1cccc2ccccc12
inhibition at 10 µM [12]: 92.9%
Activity [13]: Active
IC50 [14]: 1200 nM
Ratio IC50 [15]: >7.7
IC50 [17]: > 10000 nM
IC50 [18]: 1300 nM
Ratio IC50 [19]: >7.7
inhibition at 10 µM [20]: 94.9%
inhibition at 10 µM [21]: 92.6%
IC50 [22]: 1400 nM
Ratio IC50 [23]: >7.7
